Laboratory results taken from PubChem BioAssay (NCI).
Several values for one entry are separate records, joined by “and”; a condition that tells them apart may be missing. Equal values may be shown once.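 Briefly, cells in 96-well plates were exposed to five compound concentrations for 48 h, and endpoints were estimated by linear interpolation. Here, GI50 denotes the concentration required for 50% inhibition of growth. Definition used: TGI = concentration required for complete inhibition of growth.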

What was measured:
Assay in all cases: inhibition of tumour cell growth, NCI panel, 48 h
[1] = tested on: 786-0 renal
[2] = tested on: SNB-19 CNS
[3] = tested on: MCF7 breast
[4] = tested on: OVCAR-4 ovarian
[5] = tested on: OVCAR-3 ovarian
[6] = tested on: HOP-92 NSCLC
[7] = tested on: PC-3 prostate
[8] = tested on: ACHN renal
[9] = tested on: OVCAR-5 ovarian
[10] = tested on: SF-295 CNS

Compound | GI50 [1] | TGI [1] | GI50 [2] | TGI [2] | GI50 [3] | GI50 [4] | TGI [4] | GI50 [5] | TGI [5] | GI50 [6] | GI50 [7] | TGI [7] | GI50 [8] | TGI [8] | GI50 [9] | TGI [9] | GI50 [10] | TGI [10] | TGI [3] | TGI [6]
CC1[C@@H]2CC=C3[C@H]4CCC5Cc6nc7c(nc6C[C@@]5(C)C4CC(=O)[C@]32CO[C@]12OC(C)(C)CC2O)CC1CC[C@@H]2C3=C[C@H]4O[C@@]5(O[C@@](C)(CO)C[C@@H]5O)C(C)[C@@]4(O)[C@]3(C)[C@@H](O)CC2[C@]1(C)C7 (stereo partly drawn) | 0.000168 µM | 0.0303 µM | 0.00459 µM and 0.00921 µM | 0.537 µM and 0.443 µM | 0.000482 µM and 0.00142 µM | 0.039 µM and 0.0985 µM | 0.921 µM and > 3.65 µM | 0.0713 µM and 0.498 µM | 0.62 µM and 3.33 µM | 0.000668 µM and 0.000454 µM | 0.000287 µM | 0.0274 µM | 0.00805 µM | 0.846 µM | 0.013 µM and 0.00425 µM | 0.139 µM and 0.0237 µM | 0.000124 µM and < 0.000365 µM | 0.000434 µM and < 0.000365 µM |  | 
Cc1c(Cl)c(C)c(Cl)c(O)c1Cl |  | > 100 µM |  | > 100 µM |  |  | > 100 µM |  | 66.5 µM |  |  | 63.9 µM |  | 72.5 µM |  | > 100 µM |  | > 100 µM | > 100 µM | 58 µM
Cc1cc(C)c2c(c1)N(C)c1ncnc(-n3cnc4cc(C)ccc43)c1CC2C (stereo not drawn) | 3.53 µM | 15.4 µM | 4.22 µM | > 100 µM | 3.42 µM | 4.18 µM | 47.4 µM | 3.32 µM | 14.7 µM | 4.1 µM | 2.25 µM | 14.8 µM | 4.07 µM | 18.3 µM | 5.52 µM | 24.4 µM | 2.89 µM | 12 µM | > 100 µM | 32.9 µM
O=C(/C=C/C=C/c1ccc2c(c1)OCO2)N/N=C\c1ccc(O)cc1O | 2.89 µM | 11.8 µM | 2.79 µM | 24.2 µM | 2.6 µM | 0.459 µM | 9.82 µM | 0.345 µM | 12.8 µM | 1.98 µM | 2.86 µM | 23.1 µM | 1.99 µM | 13.1 µM | 3.87 µM | 27.4 µM | 0.925 µM | 12.9 µM | 13.7 µM | 13.5 µM
C=CC(=O)N1CCC[C@@H](n2nc(-c3ccc(Oc4ccccc4)cc3)c3c(N)ncnc32)C1 | > 4.5 µM | > 10 µM | > 10 µM | > 10 µM | > 8.82 µM | > 10 µM | > 10 µM | > 6.8 µM | > 10 µM | 2.67 µM | > 10 µM | > 10 µM | 0.669 µM | > 10 µM | > 10 µM | > 10 µM | > 9.42 µM | > 10 µM | > 10 µM | > 8.69 µM
Nc1n[nH]c2ccc([C@@H]3Nc4ccc5cn[nH]c5c4[C@H]4C5CCC(C5)[C@@H]34)cc12 (stereo partly drawn) | 0.95 µM | 98.6 µM | 0.601 µM | > 100 µM | 0.347 µM | 2.63 µM | > 100 µM | 0.346 µM | 10.9 µM | 2.14 µM | 0.476 µM | > 100 µM | 0.797 µM | > 91.9 µM | 1.14 µM | 99.3 µM | 0.277 µM | 13.2 µM | > 76.8 µM | > 89.4 µM
CC(C)C1=CC2=C(C(=O)C1=O)C13CCCC(C)(C)C1CC2OC3=O (stereo not drawn) |  | 31.9 µM |  | > 100 µM |  |  | 40.6 µM |  | 38.8 µM |  |  | 63.2 µM |  | 38.6 µM |  | 59.7 µM |  | > 100 µM | 55.5 µM | 37.3 µM
O=C(O)c1ccc(/C=N/N=C2c3ccccc3-c3ccccc32)cc1 |  | > 100 µM |  | > 100 µM |  |  | > 100 µM |  | 67.4 µM |  |  | > 100 µM |  | > 100 µM |  | > 100 µM |  | 32.6 µM | > 100 µM | > 100 µM
